Structures can show the parent of a compound that is named as a salt.
Target: recombinant human PARP1 (Homo sapiens, UniProt P09874)
Test: PARP1 fluorescence polarization binding assay
Conditions: binding IC50, GST-tagged PARP1 20 nM, PARPi-FL probe 3 nM, 4 h at RT
Experimental: In some embodiments, the biological assay is described in the Examples herein. In some embodiments, the biological assay measures PARP-1 binding by way of fluorescence polarization measurements. In some embodiments, binding of a test compound to recombinant human PARP-1 reduces the amount of binding of a fluorescent probe, and consequently reduces the detected level of fluorescence polarization. In some test compound stock solutions are prepared in a solvent, e.g., DMSO, and are serially diluted into a range of concentrations, e.g., 15 concentrations, 14 concentrations, 13 concentrations, 12 concentrations, 11 concentrations, 10 concentrations, 9 concentrations, 8 concentrations, 7 concentrations, 6 concentrations, or 5 concentrations, by a dilution factor, e.g., a 10-fold dilution factor, a 9-fold dilution factor, an 8-fold dilution factor, a 7-fold dilution factor, a 6-fold dilution factor, a 5-fold dilution factor, a 4-fold dilution factor, a 3-fold dilution factor, or a 2-fold dilution factor. In some embodiments, the serial dilutions, e.g., 100 nL of serial dilution, 90 nL of serial dilution, 80 nL of serial dilution, 70 nL of serial dilution, 60 nL of serial dilution, 50 nL of serial dilution, 30 nL of serial dilution, 20 nL of serial dilution, or 10 nL of serial dilution, are added to a multi-welled plate, e.g., a 1536-well plate, a 384-well plate, or a 96-well plate. In some embodiments, PARP-1, e.g., GST-tagged PARP-1, is diluted in assay buffer, e.g., 50 μL of assay buffer, 40 μL of assay buffer, e.g., 30 μL of assay buffer, 20 μL of assay buffer, 10 μL of assay buffer, or 5 μL of assay buffer, and is added to the plate. In some embodiments, the plate is centrifuged, e.g., at 1000 rpm for 1 min, and incubated, e.g., incubated for 30 minutes at room temperature (RT). In some embodiments, a fluorescent probe, e.g., 10 μL of 6 nM PARPi-FL (TOCRIS, Cat #6461), is diluted in an assay buffer and is added to the plate. In some embodiments, the final concentrations of PARP-1 and fluorescent probe are 20 nM and 3 nM, respectively, in a total volume of 20 μL. In some embodiments, the plate is centrifuged, e.g., at 1000 rpm for 1 minute, and the assay plate is incubated, e.g., for 4 h at RT. In some embodiments, the samples in each well are read using a plate reader, e.g., an Envision instrument using excitation=480 nm, and emission wavelength=FITC FP-P pol 535 nm & FITC FP-S pol 535 nm). In some embodiments, percent inhibition is calculated from mP values using Inhibition (%)=[1−(mPc−mPL)/(mPH−mPL)]×100%, where mPc, mPL, and mPH are the mP values of test compound, Low controls, and High controls, respectively. In some embodiments, binding IC50 values are calculated using XLFit (equation 201: y=A+((B−A)/(1+((x/C)^D))), where A=bottom, B=top, C=IC50, and D=slope) with a floating top and bottom for curves.
Compounds of the present disclosure were tested in a PARP1 fluorescence polarization binding assay at Pharmaron (Beijing, P.R. China). In this biochemical assay, binding of test compound to recombinant human PARP1 reduces the amount of binding of a fluorescent probe, and consequently reduces the detected level of fluorescence polarization. Test compound stock solutions were prepared in DMSO and then serially diluted into 10 concentrations by 3-fold dilution in a 384-well plate using a TECAN EVO200. 60 nL of each dilution was transferred to the plate using an Echo550 (Labcyte), and then 10 μL 40 nM GST-tagged PARP1 (BPS Bioscience, Cat #80501), diluted in assay buffer (50 mM Tris pH 8.0, 0.001% Triton X-100, 10 mM MgCl2, 150 mM NaCl), was added to the plate. After a centrifugation at 1000 rpm for 1 min, the assay plate was incubated for 30 min at RT. 10 μL 6 nM PARPi-FL (TOCRIS, Cat #6461), diluted using assay buffer, was then added to the plate. The final concentrations of PARP1 and PARPi-FL were 20 nM and 3 nM, respectively, in a total volume of 20 μL. […]

Sequence of recombinant human PARP1 (P09874 whole entry): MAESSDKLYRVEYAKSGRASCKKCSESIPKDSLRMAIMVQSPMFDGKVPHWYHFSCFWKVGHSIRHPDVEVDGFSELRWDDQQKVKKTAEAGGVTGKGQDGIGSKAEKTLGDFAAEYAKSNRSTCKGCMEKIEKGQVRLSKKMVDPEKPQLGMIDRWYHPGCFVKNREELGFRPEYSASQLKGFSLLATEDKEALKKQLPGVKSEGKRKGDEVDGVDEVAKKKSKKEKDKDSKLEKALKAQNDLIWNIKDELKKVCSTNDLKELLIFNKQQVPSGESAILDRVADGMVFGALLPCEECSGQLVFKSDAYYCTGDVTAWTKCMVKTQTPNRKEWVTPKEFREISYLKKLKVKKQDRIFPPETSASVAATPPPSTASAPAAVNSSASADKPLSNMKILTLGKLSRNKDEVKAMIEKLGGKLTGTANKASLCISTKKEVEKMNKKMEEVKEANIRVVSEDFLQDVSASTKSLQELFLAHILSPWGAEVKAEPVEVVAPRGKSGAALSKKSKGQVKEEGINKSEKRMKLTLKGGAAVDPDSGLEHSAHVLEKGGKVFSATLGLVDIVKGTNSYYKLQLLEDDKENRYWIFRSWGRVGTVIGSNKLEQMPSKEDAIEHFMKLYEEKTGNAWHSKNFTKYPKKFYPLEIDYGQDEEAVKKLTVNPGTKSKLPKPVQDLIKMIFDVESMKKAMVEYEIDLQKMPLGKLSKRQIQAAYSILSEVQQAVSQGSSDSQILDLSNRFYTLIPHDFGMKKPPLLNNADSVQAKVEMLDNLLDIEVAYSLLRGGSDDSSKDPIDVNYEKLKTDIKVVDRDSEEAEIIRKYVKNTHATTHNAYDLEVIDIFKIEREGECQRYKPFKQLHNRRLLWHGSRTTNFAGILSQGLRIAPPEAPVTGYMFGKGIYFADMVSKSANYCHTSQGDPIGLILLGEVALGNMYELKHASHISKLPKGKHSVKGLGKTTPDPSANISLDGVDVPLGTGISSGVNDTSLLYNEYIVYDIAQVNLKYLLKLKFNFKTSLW

CCc1cc2ncc(CN3CCCN(c4ccc(C(=O)NC)nc4)CC3)cc2[nH]c1=O [Compound No. 6, 5-(4-((7-ethyl-6-oxo-5H-1,5-naphthyridin-3-yl)methyl)-1,4-diazepan-1-yl)-N-methylpyridine-2-carboxamide]
IC50: < 0.1 µM

CCc1cc2ncc(CN3CC4CN(c5ccc(C(=O)NC)nc5)CC4C3)cc2[nH]c1=O (stereo not shown) [Compound No. 7, 5-(5-((7-ethyl-6-oxo-5,6-dihydro-1,5-naphthyridin-3-yl)methyl)hexahydropyrrolo[3,4-c]pyrrol-2(1H)-yl)-N-methylpicolinamide]
IC50: 0.1 to 3 µM

CCc1cc2ncc(CN3CC4(C3)CN(c3ccc(C(=O)NC)nc3)C4)cc2[nH]c1=O [Compound No. 9, 5-(6-((7-ethyl-6-oxo-5,6-dihydro-1,5-naphthyridin-3-yl)methyl)-2,6-diazaspiro[3.3]heptan-2-yl)-N-methylpicolinamide formate]
IC50: < 0.1 µM

CCc1cc2ncc(CNC3CC(Nc4ccc(C(=O)NC)nc4)C3)cc2[nH]c1=O (stereo not shown) [Compound No. 29, 5-((3-(((7-ethyl-6-oxo-5,6-dihydro-1,5-naphthyridin-3-yl)methyl)amino)cyclobutyl)amino)-N-methylpicolinamide]
IC50: 0.1 to 3 µM
